Measured values published in ChEMBL document CHEMBL1137624, “Synthesis and characterization of pyrrolidine derivatives as potent agonists of the human melanocortin-4 receptor” (Bioorg Med Chem Lett, 2007).

Key:
[1] = target: T1, Melanocortin receptor 4 (Homo sapiens, UniProt P32245); assay: Displacement of [125I]NDP-MSH from human MC4 receptor expressed in HEK293 cells; format: cell-based
[2] = target: T1, Melanocortin receptor 4; assay: Intrinsic activity at human MC4 receptor expressed in CHO cells assessed as cAMP accumulation relative to alpha-MSH; format: functional, cell-based
[3] = target: T1, Melanocortin receptor 4; assay: Agonist activity at human MC4 receptor expressed in CHO cells assessed as cAMP accumulation by ELISA; format: functional, cell-based
[4] = target: Melanocortin receptor 5 (Homo sapiens, UniProt P33032); assay: Binding affinity at human MC5 receptor
[5] = target: Melanocortin receptor 3 (Homo sapiens, UniProt P41968); assay: Binding affinity at human MC3 receptor
[6] = target: Melanocyte-stimulating hormone receptor (Homo sapiens, UniProt Q01726); assay: Binding affinity at human MC1 receptor at 10 uM
[7] = target: T1, Melanocortin receptor 4; assay: Antagonist activity at human MC4 receptor expressed in CHO cells assessed as inhibition of alpha-MSH-stimulated of cAMP production by ELISA; format: functional, cell-based

T1 sequence (P32245 whole entry): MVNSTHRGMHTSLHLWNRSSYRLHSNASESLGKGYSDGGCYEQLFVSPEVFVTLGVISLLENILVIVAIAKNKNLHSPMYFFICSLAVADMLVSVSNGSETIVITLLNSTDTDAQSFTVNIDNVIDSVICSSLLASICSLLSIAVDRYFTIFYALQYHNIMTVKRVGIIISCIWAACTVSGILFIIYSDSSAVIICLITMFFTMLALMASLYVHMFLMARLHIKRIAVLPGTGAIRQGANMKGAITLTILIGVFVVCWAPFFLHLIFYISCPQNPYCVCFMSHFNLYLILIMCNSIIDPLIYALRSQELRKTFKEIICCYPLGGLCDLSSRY
Sequence of Melanocortin receptor 3 (P41968 whole entry): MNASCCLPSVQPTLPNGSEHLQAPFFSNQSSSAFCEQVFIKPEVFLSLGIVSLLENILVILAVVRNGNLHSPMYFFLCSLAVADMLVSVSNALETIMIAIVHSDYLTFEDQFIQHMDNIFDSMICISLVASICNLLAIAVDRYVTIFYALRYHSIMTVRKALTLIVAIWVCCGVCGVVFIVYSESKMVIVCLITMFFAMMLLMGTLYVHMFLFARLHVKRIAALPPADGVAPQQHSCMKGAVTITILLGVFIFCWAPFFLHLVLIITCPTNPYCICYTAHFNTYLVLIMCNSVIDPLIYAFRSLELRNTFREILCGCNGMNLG
Sequence of Melanocortin receptor 5 (P33032 whole entry): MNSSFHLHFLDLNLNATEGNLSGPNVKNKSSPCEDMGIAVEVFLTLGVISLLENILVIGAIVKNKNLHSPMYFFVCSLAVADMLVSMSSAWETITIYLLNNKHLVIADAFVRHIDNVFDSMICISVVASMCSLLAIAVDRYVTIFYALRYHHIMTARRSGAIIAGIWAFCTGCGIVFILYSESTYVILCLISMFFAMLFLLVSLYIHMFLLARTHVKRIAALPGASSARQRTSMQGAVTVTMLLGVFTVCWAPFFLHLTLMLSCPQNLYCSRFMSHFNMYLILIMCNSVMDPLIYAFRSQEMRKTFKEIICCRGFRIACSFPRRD
Sequence of Melanocyte-stimulating hormone receptor (Q01726 whole entry, looked up): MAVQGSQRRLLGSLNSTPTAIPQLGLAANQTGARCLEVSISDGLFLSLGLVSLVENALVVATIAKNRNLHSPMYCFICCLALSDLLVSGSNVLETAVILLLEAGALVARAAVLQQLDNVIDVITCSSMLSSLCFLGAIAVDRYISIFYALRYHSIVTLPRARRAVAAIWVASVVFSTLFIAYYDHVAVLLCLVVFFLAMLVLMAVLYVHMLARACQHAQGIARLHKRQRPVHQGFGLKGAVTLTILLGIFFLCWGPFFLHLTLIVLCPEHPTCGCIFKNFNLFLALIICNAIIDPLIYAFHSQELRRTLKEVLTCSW

Ki [1] [nM]	Intrinsic activity [2] [%]	also measured	Structure (SMILES)
110	35	–	CC(=O)N1C[C@@H](C(=O)N2CCN(c3ccc(C)cc3[C@@H](N)C(C)C)CC2)[C@H](c2ccc(Cl)cc2)C1
94	19	–	CC(C)[C@H](N)c1cccc(F)c1N1CCN(C(=O)C2CN(Cc3ccccc3)CC2c2ccc(Cl)cc2)CC1 (some centres not stated)
9.3	49	–	CC(C)[C@H](N)c1cccc(F)c1N1CCN(C(=O)[C@@H]2CN(C3CCCCC3)C[C@H]2c2ccc(Cl)cc2)CC1
205	–	–	CC(C)[C@H](N)c1cccc(F)c1N1CCN(C(=O)[C@@H]2CN(CCC(F)(F)F)C[C@H]2c2ccc(Cl)cc2)CC1
–	86	–	CC(C)[C@H](N)c1cccc(F)c1N1CCN(C(=O)[C@@H]2CN(C(C)C)C[C@H]2c2ccc(Cl)cc2)CC1
160	–	–	CC(C)[C@H](N)c1cccc(F)c1N1CCN(C(=O)[C@@H]2CN(C(=O)c3ccccc3)C[C@H]2c2ccc(Cl)cc2)CC1
95	34	–	CC(C)C[C@H](N)c1cc(C(F)(F)F)ccc1N1CCN(C(=O)[C@@H]2CN(S(C)(=O)=O)C[C@H]2c2ccc(Cl)cc2)CC1
64	36	–	COCC(C)N1C[C@@H](C(=O)N2CCN(c3ccc(C)cc3[C@@H](N)C(C)C)CC2)[C@H](c2ccc(Cl)cc2)C1 (some centres not stated)
78	22	–	Cc1ccc(N2CCN(C(=O)[C@@H]3CN(C(=O)C4CCC4)C[C@H]3c3ccc(Cl)cc3)CC2)c([C@@H](N)C(C)C)c1
15	0	–	Cc1ccc(N2CCN(C(=O)[C@@H]3CN(C(=O)OC(C)(C)C)C[C@H]3c3ccc(Cl)cc3)CC2)c([C@@H](N)C(C)C)c1
18	3	–	CCN1CCC(N2C[C@@H](C(=O)N3CCN(c4ccc(C)cc4[C@@H](N)C(C)C)CC3)[C@H](c3ccc(Cl)cc3)C2)CC1
81	–	–	CC(C)[C@H](N)c1cccc(F)c1N1CCN(C(=O)[C@@H]2CN(C)C[C@H]2c2ccc(Cl)cc2)CC1
74	–	–	CC(C)[C@H](N)c1cc(C(F)(F)F)ccc1N1CCN(C(=O)CCc2ccc(Cl)cc2Cl)CC1
36	52	–	Cc1ccc(N2CCN(C(=O)[C@@H]3CN(Cc4ccccc4)C[C@H]3c3ccc(Cl)cc3)CC2)c([C@@H](N)C(C)C)c1
43	52	EC50 [3]: 1400 nM	CC(C)CN1C[C@@H](C(=O)N2CCN(c3c(F)cccc3[C@@H](N)C(C)C)CC2)[C@H](c2ccc(Cl)cc2)C1
66	72	EC50 [3]: 1900 nM	CC(=O)N1C[C@@H](C(=O)N2CCN(c3ccc(C(F)(F)F)cc3[C@@H](N)CC(C)C)CC2)[C@H](c2ccc(Cl)cc2)C1
4.5	–	–	CC(C)[C@H](N)c1cc(C(F)(F)F)ccc1N1CCN(C(=O)[C@@H](Cc2ccc(Cl)cc2Cl)N2CCCC2=O)CC1
220	–	–	CC(=O)N1C[C@@H](C(=O)N2CCN(c3c(F)cccc3[C@@H](N)C(C)C)CC2)[C@H](c2ccc(Cl)cc2)C1
18	1	–	Cc1ccc(N2CCN(C(=O)[C@@H]3CN(C4CCN(C(C)C)CC4)C[C@H]3c3ccc(Cl)cc3)CC2)c([C@@H](N)C(C)C)c1
180	37	–	CC(C)C[C@H](N)c1cc(C(F)(F)F)ccc1N1CCN(C(=O)[C@@H]2CN(CCN)C[C@H]2c2ccc(Cl)cc2)CC1
610	–	–	CC(C)[C@H](N)c1cc(C(F)(F)F)ccc1N1CCN(C(=O)[C@@H]2CN(Cc3ccccc3)C[C@H]2c2ccc(Cl)cc2Cl)CC1
200	27	–	COCC(COC)N1C[C@@H](C(=O)N2CCN(c3ccc(C)cc3[C@@H](N)C(C)C)CC2)[C@H](c2ccc(Cl)cc2)C1
30	3	–	CC(C)C[C@H](N)c1cc(C(F)(F)F)ccc1N1CCN(C(=O)[C@@H]2CN(C(=O)c3ccccc3)C[C@H]2c2ccc(Cl)cc2)CC1
540	–	–	CC(C)[C@H](N)c1cccc(F)c1N1CCN(C(=O)[C@@H]2CN(C(=O)C(C)(C)C)C[C@H]2c2ccc(Cl)cc2)CC1
260	24	–	CC(C)C[C@H](N)c1cc(C(F)(F)F)ccc1N1CCN(C(=O)[C@@H]2CN(c3ccccc3)C[C@H]2c2ccc(Cl)cc2)CC1

Ki [1] [nM]	Intrinsic activity [2] [%]	also measured	Structure (SMILES)
260	–	–	CCCC(=O)N1C[C@@H](C(=O)N2CCN(c3c(F)cccc3[C@@H](N)C(C)C)CC2)[C@H](c2ccc(Cl)cc2)C1
26	–	–	CC(C)[C@H](N)c1cc(C(F)(F)F)ccc1N1CCN(C(=O)[C@H](C)Cc2ccc(Cl)cc2Cl)CC1
12	36	–	Cc1ccc(N2CCN(C(=O)C3CN(C4CCOCC4)CC3c3ccc(Cl)cc3)CC2)c([C@@H](N)C(C)C)c1 (some centres not stated)
250	–	–	CC(C)C(=O)N1C[C@@H](C(=O)N2CCN(c3c(F)cccc3[C@@H](N)C(C)C)CC2)[C@H](c2ccc(Cl)cc2)C1
96	12	–	CC(C)C[C@H](N)c1cc(C(F)(F)F)ccc1N1CCN(C(=O)[C@@H]2CN(C(=O)CN)C[C@H]2c2ccc(Cl)cc2)CC1
8.6	18	Ki [4]: 380 nM; Ki [5]: 1400 nM; inhibition [6]: 33%; IC50 [7]: 65 nM	Cc1ccc(N2CCN(C(=O)[C@H]3CN(C4CCOCC4)C[C@@H]3c3ccc(Cl)cc3)CC2)c([C@@H](N)C(C)C)c1
32	–	–	CC(C)[C@H](N)c1cccc(F)c1N1CCN(C(=O)[C@@H]2CN(C3CCC3)C[C@H]2c2ccc(Cl)cc2)CC1
120	52	EC50 [3]: 7300 nM	CC(C)C[C@H](N)c1cc(C(F)(F)F)ccc1N1CCN(C(=O)[C@@H]2CN(Cc3ccccc3)C[C@H]2c2ccc(Cl)cc2)CC1
59	31	–	CCC(=O)N1C[C@@H](C(=O)N2CCN(c3ccc(C)cc3[C@@H](N)C(C)C)CC2)[C@H](c2ccc(Cl)cc2)C1
82	34	–	CC(C)C[C@H](N)c1cc(C(F)(F)F)ccc1N1CCN(C(=O)[C@@H]2CNC[C@H]2c2ccc(Cl)cc2)CC1
5.4	1	IC50 [7]: 1800 nM	Cc1ccc(N2CCN(C(=O)[C@@H]3CN(C4CCN(CC(C)C)CC4)C[C@H]3c3ccc(Cl)cc3)CC2)c([C@@H](N)C(C)C)c1
390	32	–	CC(C)C[C@H](N)c1cc(C(F)(F)F)ccc1N1CCN(C(=O)[C@@H]2CN(C(=O)OC(C)(C)C)C[C@H]2c2ccc(Cl)cc2)CC1
75	0	–	Cc1ccc(N2CCN(C(=O)[C@@H]3CN(C(=O)CCc4ccccc4)C[C@H]3c3ccc(Cl)cc3)CC2)c([C@@H](N)C(C)C)c1
26	80	EC50 [3]: 400 nM	CC(C)[C@H](N)c1cccc(F)c1N1CCN(C(=O)[C@@H]2CN(C3CCCC3)C[C@H]2c2ccc(Cl)cc2)CC1
6.6	21	–	Cc1ccc(N2CCN(C(=O)[C@@H]3CN(C4CCCCC4)C[C@H]3c3ccc(Cl)cc3)CC2)c([C@@H](N)C(C)C)c1
31	–	–	CC(C)[C@H](N)c1cccc(F)c1N1CCN(C(=O)[C@@H]2CN(C(=O)C3CC3)C[C@H]2c2ccc(Cl)cc2)CC1
98	3	–	CC(C)[C@H](N)c1cccc(F)c1N1CCN(C(=O)[C@H]2CN(Cc3ccccc3)C[C@@H]2c2ccc(Cl)cc2)CC1
100	0	–	Cc1ccc(N2CCN(C(=O)[C@@H]3CN(C(=O)CCCc4ccccc4)C[C@H]3c3ccc(Cl)cc3)CC2)c([C@@H](N)C(C)C)c1
350	–	–	CC(C)[C@H](N)c1cccc(F)c1N1CCN(C(=O)[C@@H]2CN(C(=O)C3CCCCC3)C[C@H]2c2ccc(Cl)cc2)CC1
68	14	–	CCCC(=O)N1C[C@@H](C(=O)N2CCN(c3ccc(C)cc3[C@@H](N)C(C)C)CC2)[C@H](c2ccc(Cl)cc2)C1
340	22	–	CC(C)[C@H](N)c1cccc(F)c1N1CCN(C(=O)[C@@H]2CN(Cc3ccccc3)C[C@H]2c2ccc(Cl)cc2)CC1
65	0	–	Cc1ccc(N2CCN(C(=O)[C@@H]3CN(C(=O)CCCCc4ccccc4)C[C@H]3c3ccc(Cl)cc3)CC2)c([C@@H](N)C(C)C)c1
67	67	EC50 [3]: 450 nM	COc1ccc([C@@H]2CN(C(C)C)C[C@H]2C(=O)N2CCN(c3ccc(C(F)(F)F)cc3[C@@H](N)CC(C)C)CC2)cc1
580	–	–	CC(C)[C@H](N)c1cccc(F)c1N1CCN(C(=O)[C@@H]2CN(CCO)C[C@H]2c2ccc(Cl)cc2)CC1
